What was measured:
Assay type in all cases: cell-based
[1] = system: human lung cancer (A549) cells; experiment: MTT tumor cell growth inhibition, human lung cancer (A549); settings: Homo sapiens; A549, 48 h culture, MTT method; read-out: IC50 value of target compound against cancer cell proliferation, A549
Protocol: (§1) Dissolve CHJ compound series with dimethyl sultbxide (DMSO, final concentration 0.4%), and use RPMI-1640 culture medium containing 15% fetal calf serum to prepare 1 mg/mL solution for future use. During drug administration in groups, use the culture medium to dilute it to the concentration needed.
(§2) Cell lines: human lung cancer (A549), Inman ovarian cancer (SKOV3), human melanoma (A375) and human colon cancer (LOVO) cell lines, all purchased from the Cell Bank of the Chinese Academy of Sciences, DMEM containing 15% fetal bovine serum (High Glucose) culture medium, placed in a 37° C., 5% CO2 incubator.
(§3) MTT is an oxidizing yellow dye with the chemical name of 3-(4,5-dimethyl-2-thiazolyl)-2,5-diphenyl-2-H-tetrazoliumbromide tetrazole bromide. The MMT method, also known as the MTT colorimetric method, can test the survival and growth of cells. The method is simple and easily accessible and often used to screet the substance with cytotoxic activity. The basic principle of testing, is that succinodehydrogenase can reduce exogenous MIT so that MTT is reduced to blueviolet crystal Formazan insoluble to water. The crystal deposits in cells. The succinodehydrogenase exists in the mitochondria of living cells, not in the dead cells. Therefore, the chromogenic reaction can only take place in living cells. Then, dissolve the blueviolet crystal Formazan contained in cells with dimethyl sulfoxide (DMSO), and measure its absorbancy with microplate reader so that the count of living cells is reflected indirectly. Within the scope of certain cell count, the amount of blueviolet crystal Formazan formed is positively correlated to the count of living cells.
(§4) Human lung cancer (A549), human ovarian cancer (SKOV3), human melanoma (A375) and human colon cancer (LOVO) ceilsare all adherent. Based on the growth rate of tumor cells, wash the adherent tumor cells in the logarithmic phase and digest them in 0.25% EDTA pancreatic enzyme. Adjust the cell count to 1×10^5/mL and inoculate the cells in 96-pore plate, each pore containing 100 μL. Culture the cells in the 37° C. CO2 incubator, and administer the drug 24 h later. Add pharmaceutical (CJH compound series) of different concentrations to the administration group. Set up 5 dosage groups for each pharmaceutical, respectively 100, 10, 1, 0.1, 0.01 μmol/L. Set up three complex pores for each concentration. Set up blank control, DMSO (0.8%) solvent control and cis-platinum positive control. After 48 h of culture in the 37 ° C. incubator containing 5% CO2, measure the OD value through MTT method and calculate the cell inhibition ratio.
(§5) After 48 h of culture of human lung cancer (A549), human ovarian cancer (SKOV3). human melanoma (A375) and human colon cancer (LOVO) cells, stop it and add 10 μL 0.5% MTT solution to each pore. Place it in the CO2 incubator for 4 h. Remove the liquid from each pore, respectively add 0.2 mL DMSO solution, and oscillate it adequately on the table concentrator under low frequency so that the blueviolet crystal Formazan is dissolved adequately. Place it in the microplate reader and record the OD value at the wavelength of […]. Calculate the average OD value of three parallel pores of different concentrations, and calculate the cell inhibition ratio and IC50 of each tested pharmaceutical under different concentrations based on the average.
(§6) Inhibition ratio (%)=[1-tested sample OD/negative control group OD]×100%.

[2] = system: human colon cancer (LOVO) cells; experiment: MTT tumor cell growth inhibition, human colon cancer (LOVO); settings: Homo sapiens, 48 h culture, MTT method, read-out: IC50 value of target compound against cancer cell proliferation, LOVO
Protocol: as §1, §2, §3, §4, §5, §6

[3] = system: human melanoma (A375) cells; experiment: MTT tumor cell growth inhibition, human melanoma (A375); settings: Homo sapiens, A-375; A375, 48 h culture, MTT method; read-out: IC50 value of target compound against cancer cell proliferation, A375
Protocol: as §1, §2, §3, §4, §5, §6

[4] = system: human ovarian cancer (SKOV3) cells; experiment: MTT tumor cell growth inhibition, human ovarian cancer (SKOV3); settings: Homo sapiens, SK-OV-3; SKOV3, 48 h culture, MTT method; read-out: IC50 value of target compound against cancer cell proliferation, SKOV3
Protocol: as §1, §2, §3, §4, §5, §6

SMILES | IC50 [1] [nM] | IC50 [2] [nM] | IC50 [3] [nM] | IC50 [4] [nM]
COc1cc(CN(C)CC(O)COc2c(Cl)cccc2Cl)ccc1OCCN1CCC(C)CC1 (centres unmarked) [CHJ02029, 1-(2,6-dichlorophenoxy)-3-((3-methoxy-4-(2-(4-methylpiperidin-1-yl)ethoxy)benzyl) (methyl)amino)propan-2-ol] | 3550 ± 60 | 1870 ± 20 | 2430 ± 120 | 6300 ± 160
COc1cc(CN(C)CC(O)COc2cccc(Br)c2)ccc1OCCN1CCC(C)CC1 (centres unmarked) [CHJ03001, 1-(3-bromophenoxy)-3-((3-methoxy-4-(2-(4-methylpiperidin-1-yl)ethoxy)benzyl) (methyl)amino)propan-2-ol] | 1300 ± 1030 | 1260 ± 530 | 1950 ± 330 | 2480
COc1cc(CN(C)CC(O)COc2ccccc2C(C)C)ccc1OCCN1CCC(C)CC1 (centres unmarked) [CHJ03004, 1(2-isopropylphenoxy)-3-((3-methoxy-4-(2-(4-methylpiperidin-1yl)ethoxy)benzyl) (methyl)amino)propan-2-ol] | 2100 ± 1250 | 2540 ± 100 | 720 ± 800 | 6190 ± 250
COc1cc(CN(C)CC(O)COc2ccc(Br)cc2OC)ccc1OCCN1CCC(C)CC1 (centres unmarked) [CHJ03005, 1-(4-bromo-2-methoxypbenoxy)-3-((3-methoxy-4-(2-(4-methylpiperidin-1-yl)ethoxy)benzyl)(methyl)amino)propan-2-ol] | 15600 ± 160 | 6660 ± 110 | 5600 ± 810 | 3990 ± 210
COc1cc(CN(C)CC(O)COc2ccc(Br)cc2)ccc1OCCN1CCC(C)CC1 (centres unmarked) [CHJ03014] | 1090 ± 60 | 530 ± 150 | – | 6190 ± 620
COc1cc(CN(C)CC(O)COc2cccc(C(C)C)c2)ccc1OCCN1CCC(C)CC1 (centres unmarked) [CHJ03015, 1-(3-isopropylphenoxy)-3-((3-methoxy-4-(2-(4-methylpiperidin-1-yl)ethoxy)benzyl) (methyl)amino)propan-2-ol] | 1030 ± 130 | 550 ± 210 | – | 4470 ± 1620
COc1cccc(OCC(O)CN(C)Cc2ccc(OCCN3CCC(C)CC3)c(OC)c2)c1 (centres unmarked) [CHJ03017, 1-((3-methoxy-4-(2-(4-methylpiperidin-1-yl)ethoxy)benzyl)(methyl)amino)-3-(3-methoxyphenoxy)propan2-ol] | 17200 ± 790 | 2440 ± 30 | 8680 ± 110 | 6210 ± 1040
COc1cc(CN(C)CC(O)COc2ccc(Cl)c(Br)c2)ccc1OCCN1CCC(C)CC1 (centres unmarked) [CHJ03043, 1-(3-bromo-4-chlorophenoxy)-3-((3-methoxy-4-(2-(4-methylpiperidia-1-yl)ethoxy)benzyl)(methyl)amino)propan-2-ol] | 2500 ± 1320 | 950 ± 410 | 540 ± 260 | 2900 ± 190
COc1cc(CN(C)CC(O)COc2cc(Cl)cc(Cl)c2)ccc1OCCN1CCC(C)CC1 (centres unmarked) [CHJ04012, 1-(3,5-dichlorophenoxy)-3-((3-methoxy-4-(2-(4-methylpiperidin-1-yl)ethoxy)benzyl) (methyl)amino)propan-2-ol] | 6380 ± 70 | 2120 ± 40 | 1240 ± 1010 | 4340 ± 320
COc1cc(CN(C)CC(O)COc2cc(F)cc(Br)c2)ccc1OCCN1CCC(C)CC1 (centres unmarked) [CHJ04023] | 5440 ± 2540 | 3070 ± 1620 | 810 ± 330 | 8030 ± 2770
COc1cc(CN(C)CC(O)COc2cccc(Cl)c2)ccc1OCCN1CCC(C)CC1 (centres unmarked) [CHJ04024] | 5450 ± 1030 | 18600 ± 3220 | 980 ± 760 | 1370 ± 340
COc1cc(CN(C)CC(O)COc2ccc(Cl)c(Cl)c2)ccc1OCCN1CCC(C)CC1 (centres unmarked) [CHJ04026, 1-(3,4-dichlophenoxy)-3-((3-methoxy-4-(2-(4-methylpiperidin-1-yl)ethoxy)benzyl) (methyl)amino)propan-2-ol] | 970 ± 210 | 820 ± 420 | 1500 ± 60 | 7450 ± 2260
COc1cc(CN(C)CC(O)COc2ccccc2I)ccc1OCCN1CCC(C)CC1 (centres unmarked) [CHJ04027] | 6220 ± 1340 | 2350 ± 1040 | 730 ± 130 | 3020 ± 1760
COc1cc(CN(C)CC(O)COc2c(Cl)cc(Br)cc2Cl)ccc1OCCN1CCC(C)CC1 (centres unmarked) [CHJ04033, 1-(4-bromo-2,6-dichlorophenoxy)-3-((3-methoxy-4-(2-(4-methylpiperidin-1-yl)ethoxy)benzyl)(methyl)amino)propan-2-ol] | 950 ± 370 | 2230 ± 1260 | 920 ± 70 | 6220 ± 3050
COc1cc(CN(C)CC(O)COc2ccccc2OC)ccc1OCCN1CCC(C)CC1 (centres unmarked) [CHJ04086] | – | – | 34700 ± 3420 | –

Next, values leading:

IC50 [1] [nM] | IC50 [2] [nM] | IC50 [3] [nM] | IC50 [4] [nM] | SMILES
520 ± 230 | 1250 ± 30 | 620 ± 40 | 620 ± 80 | COc1cc(CN(C)CC(O)COc2ccc(Br)c(C(F)(F)F)c2)ccc1OCCN1CCC(C)CC1 (centres unmarked) [CHJ02049, 1-(4-bromo-3-(trifluoromethyl)phenoxy)-3-((3-methoxy-4-(2-(4-methylpiperidin-1-yl)ethoxy)benzyl)(methyl)amino)propan-2-ol]
1090 ± 1550 | 3880 ± 1800 | 1870 ± 70 | 4040 ± 60 | COc1cc(CN(C)CC(O)COc2cc(C(F)(F)F)ccc2C(F)(F)F)ccc1OCCN1CCC(C)CC1 (centres unmarked) [CHJ02050, 1-(2,5-bis(trifluoromethyl)phenoxy)-3-((3-methoxy-4-(2-(4-methylpiperidin-1-yl)ethoxy)benzyl)(methyl)amino)propan-2-ol]
6080 ± 900 | 700 ± 260 | 5950 ± 420 | 3000 ± 990 | COc1cc(CN(C)CC(O)COc2ccccc2Br)ccc1OCCN1CCC(C)CC1 (centres unmarked) [CHJ03003, 1-(2-bromophenoxy)-3-((3-methoxy-4-(2-(4-methylpiperidin-1-yl)ethoxy)benzyl) (methyl)amino)propan-2-ol]
18800 ± 1060 | 1720 ± 1580 | 3130 ± 60 | 1790 ± 230 | COc1cc(CN(C)CC(O)COc2cc(Br)ccc2F)ccc1OCCN1CCC(C)CC1 (centres unmarked) [CHJ03018]
– | 2780 ± 230 | 450 ± 460 | 4960 ± 1260 | COc1cc(CN(C)CC(O)COc2ccc(C)c(Br)c2)ccc1OCCN1CCC(C)CC1 (centres unmarked) [CHJ04010, 1-(3-bromo-4-methylphenoxy)-3-((3-methoxy-4-(2-(4-methylpiperidin-1-yl)ethoxy)benzyl)(methyl)amino)propan-2-ol]
4050 ± 1120 | 1010 ± 80 | 480 ± 280 | 2410 ± 1030 | COc1cc(CN(C)CC(O)COc2cc(C(F)(F)F)ccc2Br)ccc1OCCN1CCC(C)CC1 (centres unmarked) [CHJ04011]
1380 ± 1140 | 3830 ± 1800 | 1600 ± 920 | 3400 ± 1170 | COc1cc(CN(C)CC(O)COc2ccc(F)c(Br)c2)ccc1OCCN1CCC(C)CC1 (centres unmarked) [CHJ04020, 1-(3-bromo-4-fluorophenoxy)-3-((3-methoxy-4-(2-(4-methylpiperidin-1-yl)ethoxy)benzyl)(methyl)amino)propan-2-ol]
4210 ± 2240 | 2550 ± 1650 | 2340 ± 1630 | 3320 ± 1020 | COc1cc(CN(C)CC(O)COc2cccc(C(F)(F)F)c2)ccc1OCCN1CCC(C)CC1 (centres unmarked) [CHJ04025, 1-((3-methoxy-4-(2-(4-methylpiperidin-1-yl)ethoxy)benzyl)(methyl)amino)-3-(3-(trifluoromethyl)phenoxy)propan-2-ol]
25500 ± 2110 | 3140 ± 1060 | – | 27100 ± 1620 | COc1cc(CN(C)CC(O)COc2cc(C(F)(F)F)ccc2Br)ccc1OCCN1CCCC1 (centres unmarked) [CHJ04065, 1-(-bromo-5-(trifluoromethyl)phenoxy)-3-((3-methoxy-4-(2-(pyrrolidin-1-yl)ethoxy)benzyl)(methyl)amino)propan-2-ol]
